# Assay: Solubility of cyclooctasulfur, cyclododecasulfur and crystalline polymeric sulfur in carbon disulfide, chlorobenzene and para-xylene (supernatant sulfur content by Uniquant)
# Type: physicochemical
# Protocol: Samples were also analyzed using X-ray fluorescence and the UniQuant software package. UniQuant (UQ) is an x-ray fluorescence (XRF) analysis tool that affords standardless XRF analysis of samples. Samples can then be semi-quantitatively analyzed for up to 72 elements beginning with row three in the periodic table (i.e. Na to higher Z). The data are mathematically corrected for matrix differences between calibration standards and samples as well as absorption and enhancement effects; i.e. inter-element effects. Some factors that can affect the quality of results include granularity in the sample (leading to shadow effects), mineralogical effects (due to sample inhomogeneity), insufficient sample size, and lack of knowledge of the sample matrix. In cases where a sample was amenable to both, the XRF UQ analysis and the ICP-OES (i.e. quantitative) analysis generally agree within +/−10%. Samples were analyzed for Zn, Br, Cl, and S content by UQ.
# Fifty grams of p-xylene was added to each of three identical 100-milliliter jacketed glass vessels fitted with a circulating heating bath, cooling water condenser, magnetic stir bar and stir plate, and nitrogen purge. All vessels were heated to the desired temperature, and cyclooctasulfur, cyclododecasulfur (prepared as in Example 2), and unoiled commercial crystalline polymeric sulfur (Crystex™) was added in sufficient quantities to each of the glass vessels to allow undissolved solids to remain after dissolution and equilibration of the mixture. The equilibration period typically lasted 2 to 8 hours, during which the contents of the vessel were maintained at the desired temperature and stirred continuously. Upon equilibration, supernatant liquid was withdrawn from the vessels via a heated fritted glass pipette (heated to the same temperature as the solution). The supernatants were analyzed by Uniquant to determine sulfur content, indicating the solubility of the sulfur species at the vessel temperature. Similar experiments were conducted for carbon disulfide and chlorobenzene for each of the three solutes.
"Solubility in weight % of solute in solvent (solvent CS2, 22 °C) [wt %]","Solubility in weight % of solute in solvent (solvent CS2, 45 °C) [wt %]","Solubility in weight % of solute in solvent (solvent chlorobenzene, 45 °C) [wt %]","Solubility in weight % of solute in solvent (solvent chlorobenzene, 115 °C) [wt %]","Solubility in weight % of solute in solvent (solvent p-xylene, 45 °C) [wt %]","Solubility in weight % of solute in solvent (solvent p-xylene, 115 °C) [wt %]","Solubility relative to cyclododecasulfur (in p-xylene, chlorobenzene and CS2, depending on temperature) [times]","Solubility in weight % of solute in solvent (solvent chlorobenzene, 22 °C) [wt %]","Solubility in weight % of solute in solvent (solvent p-xylene, 22 °C) [wt %]",Structure (SMILES),"Solubility relative to polymeric sulfur (in p-xylene, chlorobenzene and CS2)"
0.2,0.5,0.015,0.44,<0.05,0.4,–,–,–,"S1SSSSSSSSSSS1 [Cyclododecasulfur, cyclododecasulfur]",at least an order of magnitude more soluble
32,48,6.2,21.7,5.6,18.7,30 to 200,2.4,2.3,"S1SSSSSSS1 [Cyclooctasulfur, cyclooctasulfur]",–

# — patent US10000380B2, “Method for the manufacture of polymeric sulfur” (EASTMAN CHEMICAL COMPANY, priority 2016, dated 2018)
